ChEMBL document CHEMBL6087456 (J Med Chem, 2025)
Values after ≈ are worked out from the molar mass of the structure shown.

What was measured:
[1] = molecular target: Dihydroorotate dehydrogenase (quinone), mitochondrial (Homo sapiens, UniProt Q02127); test: Inhibition of C-terminal His6-tagged recombinant human DHODH (29 to 395 residues) N-terminally truncated soluble domain extracted from Escherichia coli phage resistant BL21-DE3 using CoQD/DHA/DCIP as substrates
Plasmodium falciparum [2] = test: Antiparasitic activity against asexual blood stage Plasmodium falciparum 3D7 incubated for 72 hrs by SYBR Green assay; type: functional, organism-based; conditions: 3D7, 72 h
[3] = Kinetic solubility of compound at pH 6.5 measured after 30 mins by nephelometry; type: physicochemical; conditions: buffer, pH 6.5, read-out: Kinetic_solubility
[4] = Metabolic stability in human liver microsomes assessed as intrinsic clearance at 0.5 uM incubated for 60 mins in presence of NADPH by tandem quadrupole-Time of Flight MS; type: ADME, Microsome; conditions: 1 h
[5] = Cytotoxicity against human HepG2 cells by Cell Titer Glo assay; type: toxicity, cell-based
[6] = Cytotoxicity against human Jurkat cells by Cell Titer Glo assay; type: toxicity, cell-based
[7] = Partition coefficient, log D of compound at pH 7.4 measured after 24 hrs by LCMS analysis; type: physicochemical; conditions: octanol/water, pH 7.4, 24 h
[8] = Plasma protein binding in human measured for 6 hrs by rapid equilibrium dialysis; type: ADME, cell-free
[9] = Plasma protein binding in rat measured for 6 hrs by rapid equilibrium dialysis; type: ADME, cell-free
Albumin = Albumin (Homo sapiens, UniProt P02768); test: Protein binding to albumin (unknown origin) in ALBUMAX medium; type: ADME; conditions: read-out: PB (converted)
Chain of Albumin (P02768 whole entry): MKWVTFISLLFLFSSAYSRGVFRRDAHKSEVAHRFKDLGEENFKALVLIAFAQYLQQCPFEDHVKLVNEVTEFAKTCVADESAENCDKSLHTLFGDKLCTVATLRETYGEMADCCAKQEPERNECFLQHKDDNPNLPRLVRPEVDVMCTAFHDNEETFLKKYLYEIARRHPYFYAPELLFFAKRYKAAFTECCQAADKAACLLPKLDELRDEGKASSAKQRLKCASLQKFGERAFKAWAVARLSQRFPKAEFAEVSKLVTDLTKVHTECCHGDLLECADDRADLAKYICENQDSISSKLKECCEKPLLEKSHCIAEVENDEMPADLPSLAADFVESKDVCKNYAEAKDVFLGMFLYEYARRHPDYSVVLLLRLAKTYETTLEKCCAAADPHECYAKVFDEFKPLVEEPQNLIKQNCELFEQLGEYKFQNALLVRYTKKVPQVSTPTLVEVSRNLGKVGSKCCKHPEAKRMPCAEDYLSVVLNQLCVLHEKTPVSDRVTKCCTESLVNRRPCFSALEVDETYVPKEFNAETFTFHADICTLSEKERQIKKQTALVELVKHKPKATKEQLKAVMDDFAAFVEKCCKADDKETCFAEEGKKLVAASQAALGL

[10] = Protein binding in human hepatocytes; type: ADME, cell-based, Hepatocyte; conditions: read-out: PB (converted)
[11] = Ratio of drug concentration in Sprague-Dawley rat brain to plasma at 1 uM measured for 5 to 60 mins by LCMS analysis; type: ADME, cell-free; conditions: time 5-60 min
[12] = Oral bioavailability in overnight-fasted male Sprague-Dawley rat at 3 mg/kg measured upto 72 hrs by LCMS analysis; type: ADME, organism-based; conditions: in vivo
[13] = Oral absorption in overnight-fasted male Sprague-Dawley rat at 3 mg/kg measured upto 72 hrs by LCMS analysis; type: ADME, organism-based; conditions: in vivo
[14] = Drug excretion in Sprague-Dawley rat urine at 1 mg/kg, iv; type: ADME, organism-based; conditions: read-out: Drug excretion
[15] = Permeability across apical to basal side in human Caco-2 cells; type: ADME, cell-based
Cytochrome P450 1A2 = molecular target: T1, Cytochrome P450 1A2 (Homo sapiens, UniProt P05177); test: Inhibition of CYP1A2 in human liver microsomes; type: ADME, Microsome
T1 sequence (P05177 whole entry): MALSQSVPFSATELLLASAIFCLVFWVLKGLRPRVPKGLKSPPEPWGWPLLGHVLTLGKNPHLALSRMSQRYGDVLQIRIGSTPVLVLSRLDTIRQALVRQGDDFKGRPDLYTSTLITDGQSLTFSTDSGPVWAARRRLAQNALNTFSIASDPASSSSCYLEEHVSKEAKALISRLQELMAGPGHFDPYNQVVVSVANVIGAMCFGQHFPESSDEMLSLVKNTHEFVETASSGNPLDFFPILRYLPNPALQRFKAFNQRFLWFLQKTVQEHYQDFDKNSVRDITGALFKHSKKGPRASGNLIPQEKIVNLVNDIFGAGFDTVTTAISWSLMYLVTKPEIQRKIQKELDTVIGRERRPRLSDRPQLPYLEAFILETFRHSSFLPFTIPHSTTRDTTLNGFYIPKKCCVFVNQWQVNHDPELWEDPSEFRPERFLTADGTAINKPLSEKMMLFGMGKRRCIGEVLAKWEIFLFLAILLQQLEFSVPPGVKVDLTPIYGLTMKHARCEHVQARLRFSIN

Cytochrome P450 2B6 = molecular target: T2, Cytochrome P450 2B6 (Homo sapiens, UniProt P20813); test: Inhibition of CYP2B6 in human liver microsomes; type: ADME, Microsome
T2 sequence (P20813 whole entry): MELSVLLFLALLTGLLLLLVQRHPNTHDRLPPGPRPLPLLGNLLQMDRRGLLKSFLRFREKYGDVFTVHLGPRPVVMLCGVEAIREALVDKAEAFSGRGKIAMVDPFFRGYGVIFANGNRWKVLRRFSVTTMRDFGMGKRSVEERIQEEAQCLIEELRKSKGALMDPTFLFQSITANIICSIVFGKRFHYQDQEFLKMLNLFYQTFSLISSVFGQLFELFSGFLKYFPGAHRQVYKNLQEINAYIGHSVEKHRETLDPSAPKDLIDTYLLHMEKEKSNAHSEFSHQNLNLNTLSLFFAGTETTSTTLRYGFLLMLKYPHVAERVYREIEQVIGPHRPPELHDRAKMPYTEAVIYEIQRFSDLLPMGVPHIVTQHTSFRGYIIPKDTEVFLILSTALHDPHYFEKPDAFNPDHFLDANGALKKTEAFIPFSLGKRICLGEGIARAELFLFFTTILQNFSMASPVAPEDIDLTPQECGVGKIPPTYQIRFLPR

Cytochrome P450 2D6 = Cytochrome P450 2D6 (Homo sapiens, UniProt P10635); test: Inhibition of CYP2D6 in human liver microsomes; type: ADME, Microsome
Chain of Cytochrome P450 2D6 (P10635 whole entry): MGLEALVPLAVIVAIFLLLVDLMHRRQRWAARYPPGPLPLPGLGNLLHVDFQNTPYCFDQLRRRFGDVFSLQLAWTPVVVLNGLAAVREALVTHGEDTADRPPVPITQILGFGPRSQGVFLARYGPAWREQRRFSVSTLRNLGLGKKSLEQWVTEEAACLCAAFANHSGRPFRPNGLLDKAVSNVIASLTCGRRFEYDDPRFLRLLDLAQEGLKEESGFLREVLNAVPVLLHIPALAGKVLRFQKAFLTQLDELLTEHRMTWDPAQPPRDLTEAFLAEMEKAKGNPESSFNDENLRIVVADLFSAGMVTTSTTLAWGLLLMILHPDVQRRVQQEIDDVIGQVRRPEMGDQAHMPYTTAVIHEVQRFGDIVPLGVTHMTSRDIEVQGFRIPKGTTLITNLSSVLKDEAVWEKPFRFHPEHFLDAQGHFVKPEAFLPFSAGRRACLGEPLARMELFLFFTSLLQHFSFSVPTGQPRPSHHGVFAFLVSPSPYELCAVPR

Cytochrome P450 3A4 = Cytochrome P450 3A4 (Homo sapiens, UniProt P08684); test: Inhibition of CYP3A4 in human liver microsomes; type: ADME, Microsome
Chain of Cytochrome P450 3A4 (P08684 whole entry): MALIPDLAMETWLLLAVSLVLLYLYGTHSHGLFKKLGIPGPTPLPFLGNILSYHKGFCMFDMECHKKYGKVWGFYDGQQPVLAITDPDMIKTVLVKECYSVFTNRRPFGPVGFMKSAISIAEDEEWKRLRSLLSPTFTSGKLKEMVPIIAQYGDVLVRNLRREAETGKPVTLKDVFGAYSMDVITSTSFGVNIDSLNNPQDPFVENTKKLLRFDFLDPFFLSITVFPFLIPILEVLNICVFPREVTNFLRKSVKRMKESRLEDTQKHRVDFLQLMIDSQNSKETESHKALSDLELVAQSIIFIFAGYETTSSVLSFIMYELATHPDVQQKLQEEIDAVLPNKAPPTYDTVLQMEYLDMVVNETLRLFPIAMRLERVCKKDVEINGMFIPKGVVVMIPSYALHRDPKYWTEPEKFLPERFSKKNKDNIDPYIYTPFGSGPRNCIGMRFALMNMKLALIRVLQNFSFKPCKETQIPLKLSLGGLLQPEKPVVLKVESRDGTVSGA

Cytochrome P450 2C19 = Cytochrome P450 2C19 (Homo sapiens, UniProt P33261); test: Inhibition of CYP2C19 in human liver microsomes; type: ADME, Microsome
Chain of Cytochrome P450 2C19 (P33261 whole entry): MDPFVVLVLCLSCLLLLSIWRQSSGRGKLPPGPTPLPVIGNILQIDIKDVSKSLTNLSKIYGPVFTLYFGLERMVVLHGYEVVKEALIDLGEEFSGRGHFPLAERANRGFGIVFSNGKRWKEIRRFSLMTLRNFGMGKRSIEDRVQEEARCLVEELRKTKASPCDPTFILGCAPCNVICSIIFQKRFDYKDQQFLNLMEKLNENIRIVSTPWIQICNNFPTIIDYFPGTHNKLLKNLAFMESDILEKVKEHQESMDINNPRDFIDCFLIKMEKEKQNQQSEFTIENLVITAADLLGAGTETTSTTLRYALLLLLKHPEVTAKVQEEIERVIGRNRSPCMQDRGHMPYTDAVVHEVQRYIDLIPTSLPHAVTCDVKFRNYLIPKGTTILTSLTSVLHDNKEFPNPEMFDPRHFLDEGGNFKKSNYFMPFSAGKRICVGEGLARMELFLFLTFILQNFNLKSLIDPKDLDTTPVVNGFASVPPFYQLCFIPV

Plasmodium falciparum [16] = test: Antiparasitic activity against Plasmodium falciparum 3D7 assessed as lag time before killing at 10 times EC50 pretreated for 120 hrs followed by compound removal and replacement of media without compound measured after 28 days by cell killing assay; type: functional
Plasmodium falciparum [17] = test: Antiparasitic activity against Plasmodium falciparum 3D7 assessed as parasitic reduction ratio at 10 times EC50 pretreated for 120 hrs followed by compound removal and replacement of media without compound measured after 28 days by cell killing assay; type: functional
[18] = Half life in overnight-fasted male Sprague-Dawley rat at 3 mg/kg, po or 1 mg/kg, iv measured upto 72 hrs by LCMS analysis; type: ADME, organism-based; conditions: in vivo
Cytochrome P450 2C8 = molecular target: T3, Cytochrome P450 2C8 (Homo sapiens, UniProt P10632); test: Inhibition of CYP2C8 in human liver microsomes; type: ADME, Microsome
T3 sequence (P10632 whole entry): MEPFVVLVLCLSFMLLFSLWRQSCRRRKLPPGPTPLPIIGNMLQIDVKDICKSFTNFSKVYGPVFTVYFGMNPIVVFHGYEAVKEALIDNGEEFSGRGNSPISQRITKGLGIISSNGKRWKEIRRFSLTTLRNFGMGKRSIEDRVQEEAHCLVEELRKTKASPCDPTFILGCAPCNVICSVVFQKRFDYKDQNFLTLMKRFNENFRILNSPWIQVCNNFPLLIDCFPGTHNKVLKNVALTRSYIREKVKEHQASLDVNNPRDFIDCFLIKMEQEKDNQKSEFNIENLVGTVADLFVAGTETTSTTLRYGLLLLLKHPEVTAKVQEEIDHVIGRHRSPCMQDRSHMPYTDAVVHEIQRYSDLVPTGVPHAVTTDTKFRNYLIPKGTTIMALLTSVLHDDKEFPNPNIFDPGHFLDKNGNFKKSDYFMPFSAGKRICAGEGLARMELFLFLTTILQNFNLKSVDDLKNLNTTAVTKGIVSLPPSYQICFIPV

Chain of Dihydroorotate dehydrogenase (quinone), mitochondrial (Q02127 whole entry, the tested form may be a part): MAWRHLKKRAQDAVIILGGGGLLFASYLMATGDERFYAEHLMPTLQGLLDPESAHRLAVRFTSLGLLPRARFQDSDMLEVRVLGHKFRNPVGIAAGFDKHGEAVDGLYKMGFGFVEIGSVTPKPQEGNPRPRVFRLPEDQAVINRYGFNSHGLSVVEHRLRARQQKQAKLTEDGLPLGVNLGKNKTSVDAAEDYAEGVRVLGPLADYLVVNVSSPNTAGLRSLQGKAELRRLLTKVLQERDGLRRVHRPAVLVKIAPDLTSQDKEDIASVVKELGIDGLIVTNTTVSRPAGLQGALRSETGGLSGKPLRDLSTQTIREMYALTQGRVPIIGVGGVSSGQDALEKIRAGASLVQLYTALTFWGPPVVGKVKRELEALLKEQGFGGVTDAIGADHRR

| Compound | EC50 (Plasmodium falciparum [2]) | solubility kinetic at 0.5 h [3] | intrinsic clearance (CLint) [4] | CC50 [5] | CC50 [6] | PPB [8] | PPB [9] | fraction unbound (Albumin) | fraction unbound [10] | F [12] | Fa at 72 h [13] | dose excreted [14] | IC50 (Cytochrome P450 1A2) | IC50 (Cytochrome P450 2B6) | IC50 (Cytochrome P450 2D6) | IC50 (Cytochrome P450 3A4) | further results |
| --- | --- | --- | --- | --- | --- | --- | --- | --- | --- | --- | --- | --- | --- | --- | --- | --- | --- |
| Cn1nc2c(=O)n(C3CC3)ccc2c1[C@](O)(c1cnc(C(F)(F)F)c(Cl)c1)C(F)(F)F | 0.001 µM | 20 µM (≈ 9.34 µg/mL) | < 3 µL/min/mg | > 20 µM | > 20 µM | 68.5% | 75.9% | 0.338 | 0.249 | > 63% | 100% | < 1% | > 20 µM | > 20 µM | > 20 µM | > 20 µM | IC50 [1]: > 30 µM; logD [7]: 2.3; BPR [11]: 0.79; permeability [15]: Permeable; IC50 (Cytochrome P450 2C19): 6.7 µM |
| Cn1nc2c(=O)n(C3CC3)ncc2c1[C@](N)(c1ccc(C(F)(F)F)c(Cl)c1)C1CC1 | 0.007 µM | 12.5 µM (≈ 5.47 µg/mL) | < 3 µL/min/mg | > 20 µM | > 20 µM | 90.8% | 86% | 0.239 | 0.335 | 79% | 81% | < 1% | > 20 µM | > 20 µM | > 20 µM | > 20 µM | Time (Plasmodium falciparum [16]): ~26 h; log(activity) (Plasmodium falciparum [17]): 3.1; t1/2 [18]: 17 h; IC50 (Cytochrome P450 2C8): 7 µM |
